Results on 32 compounds are retold here after patent US20120121540A1 (priority 2007, published 2012).

What is called inhibition is the change of the read-out against control, counted positive when it falls. Higher therefore signals a strong effect.

This assay can be described thus: HCV replicon assay (luciferase reporter, ET cell line). It counts as cell-based. The following applies: Hepatitis C virus, HCV replicon luciferase activity in ET cells. Summed up:
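EC50 and, via WST-1 cytotoxicity, TC50 were fitted with a Hill-coefficient equation to % inhibition across 10 two-fold dilutions. Compounds at 0.1 nM-[…] with 0.5% DMSO were applied 24 h post-seeding to replicon-bearing ET cells (luc-ubi-neo/NS3-5B, adaptive mutations). Firefly luciferase signal was measured after 48-72 h.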
For the compound `O=C(c1nc2c(C(F)(F)F)cc(-c3ccoc3)cn2c1Cl)N1CCN(c2nccs2)CC1` [Compound 536, (3-Chloro-6-furan-3-yl-8-trifluoromethyl-imidazo[1,2-a]pyridine-2-yl)-(4-thiazol-2-yl-piperazin-1-yl)-methanone], testing at 10 µM gave an inhibition of 95.8%.
Under `O=C(c1nc2c(C(F)(F)F)cc(-c3ccoc3)cn2c1Cl)N1CCN(c2cnccn2)CC1` [Compound 537] stands 61%.
In the case of `O=C(c1nc2c(C(F)(F)F)cc(-c3ccoc3)cn2c1Cl)N1CCN(c2ccc(F)c(F)c2)CC1` [Compound 538] it was 78.3%; in that of `O=C(c1nc2c(C(F)(F)F)cc(-c3ccoc3)cn2c1Cl)N1CCN(c2ccc(C(F)(F)F)cc2)CC1` [Compound 539], 78.9%; in that of `N#Cc1ccccc1C1CCN(C(=O)c2nc3c(C(F)(F)F)cc(-c4ccoc4)cn3c2Cl)CC1` [Compound 540, 2-[1-(3-Chloro-6-furan-3-yl-8-trifluoromethyl-imidazo[1,2-a]pyridine-2-carbonyl)-piperidin-4-yl]-benzonitrile], 98.6%.
For the compound `O=C(c1nc2c(C(F)(F)F)cc(-c3ccoc3)cn2c1Cl)N1CCC(c2ccccc2Cl)CC1` [Compound 541, (3-Chloro-6-furan-3-yl-8-trifluoromethyl-imidazo[1,2-a]pyridin-2-yl)-[4-(2-chloro-phenyl)-piperidin-1-yl]-methanone], at 10 µM the inhibition was 89.7%.
In the case of `Cc1ccccc1C1CCN(C(=O)c2nc3c(C(F)(F)F)cc(-c4ccoc4)cn3c2Cl)CC1` [Compound 542, (3-Chloro-6-furan-3-yl-8-trifluoromethyl-imidazo[1,2-a]pyridin-2-yl)-(4-o-tolyl-piperidin-1-yl)-methanone] it was 72.4%; in that of `O=C(c1nc2c(C(F)(F)F)cc(-c3ccoc3)cn2c1Cl)N1CCN(c2cccnc2)CC1` [Compound 543, (3-Chloro-6-furan-3-yl-8-trifluoromethyl-imidazo[1,2-a]pyridin-2-yl)-(4-pyridin-3-yl-piperazin-1-yl)-methanone], 91.2%.
Under `O=C(c1nc2c(C(F)(F)F)cc(-c3ccoc3)cn2c1Cl)N1CCCCC1c1ccccc1F` (centres unmarked) [Compound 544, (3-Chloro-6-furan-3-yl-8-trifluoromethyl-imidazo[1,2-a]pyridin-2-yl)-[2-(2-fluoro-phenyl)-piperidin-1-yl)-methanone] stands 75.4%; under `O=C(c1nc2c(C(F)(F)F)cc(-c3ccoc3)cn2c1Cl)N1CCCCC1c1cccc(F)c1` (centres unmarked) [Compound 545, (3-Chloro-6-furan-3-yl-8-trifluoromethyl-imidazo[1,2-a]pyridin-2-yl)-[2-(3-fluoro-phenyl)-piperidin-1-yl)-methanone], 70.2%; under `O=C(c1nc2c(C(F)(F)F)cc(-c3ccoc3)cn2c1Cl)N1CCCC(c2ccccc2F)C1` (centres unmarked) [Compound 547, (3-Chloro-6-furan-3-yl-8-trifluoromethyl-imidazo[1,2-a]pyridin-2-yl)-[3-(2-fluoro-phenyl)-piperidin-1-yl)-methanone], 94.7%.
In the case of `O=C(c1nc2c(C(F)(F)F)cc(-c3ccoc3)cn2c1Cl)N1CCCC(c2ccc(F)cc2)C1` (centres unmarked) [Compound 548, (3-Chloro-6-furan-3-yl-8-trifluoromethyl-imidazo[1,2-a]pyridin-2-yl)-[3-(4-fluoro-phenyl)-piperidin-1-yl)-methanone] it was 91.2%; in that of `O=C(c1nc2c(C(F)(F)F)cc(-c3ccoc3)cn2c1Cl)N1CCCC(c2cccc(F)c2)C1` (centres unmarked) [Compound 549, (3-Chloro-6-furan-3-yl-8-trifluoromethyl-imidazo[1,2-a]pyridin-2-yl)-[3-(3-fluoro-phenyl)-piperidin-1-yl)-methanone], 94.3%; in that of `COc1ccccc1C1CCN(C(=O)c2nc3c(C(F)(F)F)cc(-c4ccoc4)cn3c2Cl)CC1` [Compound 550, (3-Chloro-6-furan-3-yl-8-trifluoromethyl-imidazo[1,2-a]pyridin-2-yl)-[4-(2-methoxy-phenyl)-piperidin-1-yl)-methanone], 64.8%.
Regarding `O=C(c1nc2c(C(F)(F)F)cc(-c3ccoc3)cn2c1Cl)N1CCN(c2noc3ccccc23)CC1` [Compound 551, (4-Benzo[d]isoxazol-3-yl-piperazin-1-yl)-(3-Chloro-6-furan-3-yl-8-trifluoromethyl-imidazo[1,2-a]pyridine-2-yl)-methanone], the inhibition at 10 µM amounted to 38.5%.
Under `O=C(c1nc2c(C(F)(F)F)cc(-c3ccoc3)cn2c1Cl)N1CCC(n2c(=O)[nH]c3ccccc32)CC1` [Compound 552, 1-[1-(3-Chloro-6-furan-3-yl-8-trifluoromethyl-imidazo[1,2-a]pyridine-2-carbonyl)-piperidin-4-yl]-1,3-dihydro-benzoimidazol-2-one] stands 6%; under `O=C(c1nc2c(C(F)(F)F)cc(-c3ccoc3)cn2c1Cl)N1CCC(n2cc(-c3ccccc3)[nH]c2=O)CC1` [Compound 553, 1-[1-(3-Chloro-6-furan-3-yl-8-trifluoromethyl-imidazo[1,2-a]pyridine-2-carbonyl)-piperidin-4-yl]-4-phenyl-1,3-dihydro-imidazol-2-one], 43.6%; under `O=C(NCCc1ccccn1)c1nc2c(C(F)(F)F)cc(-c3ccoc3)cn2c1Cl` [Compound 554, 3-Chloro-6-furan-3-yl-8-trifluoromethyl-imidazo[1,2-a]pyridine-2-carboxylic acid (2-pyridin-2-yl-ethyl)-amide], 97.4%.
In the case of `O=C(c1nc2c(C(F)(F)F)cc(-c3ccoc3)cn2c1Cl)N1CC=C(c2ccccc2F)CC1` [Compound 555, (3-Chloro-6-furan-3-yl-8-trifluoromethyl-imidazo[1,2-a]pyridin-2-yl)-[4-(2-fluoro-phenyl)-3,6-dihydro-2H-pyridin-1-yl)-methanone] it was 95.5%; in that of `O=C(c1nc2c(C(F)(F)F)cc(-c3ccoc3)cn2c1Cl)N1CCC(c2nccs2)CC1` [Compound 556, (3-Chloro-6-furan-3-yl-8-trifluoromethyl-imidazo[1,2-a]pyridin-2-yl)-(4-thiazol-2-yl-piperidin-1-yl)-methanone], 99.5%; in that of `O=C(c1nc2c(C(F)(F)F)cc(-c3ccoc3)cn2c1Cl)N1CCC(c2cscn2)CC1` [Compound 557, (3-Chloro-6-furan-3-yl-8-trifluoromethyl-imidazo[1,2-a]pyridin-2-yl)-(4-thiazol-4-yl-piperidin-1-yl)-methanone], 93%.
Under `O=C(c1nc2c(C(F)(F)F)cc(-c3ccoc3)cn2c1Cl)N1CC=C(c2c[nH]cn2)CC1` [Compound 558, (3-Chloro-6-furan-3-yl-8-trifluoromethyl-imidazo[1,2-a]pyridin-2-yl)-[4-(1H-imidazol-4-yl)-3,6-dihydro-2H-pyridin-1-yl]-methanone] stands 89.3%.
Compound `O=C(c1nc2c(C(F)(F)F)cc(-c3ccoc3)cn2c1Cl)N1CC=C(c2nccs2)CC1` [Compound 559, (3-Chloro-6-furan-3-yl-8-trifluoromethyl-imidazo[1,2-a]pyridine-2-yl)-(4-thiazol-2-yl-3,6-dihydro-2H-pyridin-1-yl)-methanone] had an inhibition at 10 µM of 99.1%.
With `CCN(CC)C(=O)c1ccccc1C1=CCN(C(=O)c2nc3c(C(F)(F)F)cc(-c4ccoc4)cn3c2Cl)CC1` [Compound 560, 2-[1-(3-Chloro-6-furan-3-yl-8-trifluoromethyl-imidazo[1,2-a]pyridine-2-carbonyl)-1,2,3,6-tetrahydro-pyridin-4-yl]-N,N-diethyl-benzamide], the inhibition at 10 µM was found to be 80.9%.
In the case of `O=C(c1nc2c(C(F)(F)F)cc(-c3ccoc3)cn2c1Cl)N1CC=C(c2ccccc2CO)CC1` [Compound 561, (3-Chloro-6-furan-3-yl-8-trifluoromethyl-imidazo[1,2-a]pyridin-2-yl)-[4-(2-hydroxymethyl-phenyl)-3,6-dihydro-2H-pyridin-1-yl)-methanone] it was 89.1%; in that of `COc1cccc(OC)c1C1=CCN(C(=O)c2nc3c(C(F)(F)F)cc(-c4ccoc4)cn3c2Cl)CC1` [Compound 562, (3-Chloro-6-furan-3-yl-8-trifluoromethyl-imidazo[1,2-a]pyridin-2-yl)-[4-(2,6-dimethoxy-phenyl)-3,6-dihydro-2H-pyridin-1-yl)-methanone], 13.4%; in that of `N#Cc1ccccc1C1=CCN(C(=O)c2nc3c(C(F)(F)F)cc(-c4ccoc4)cn3c2Cl)CC1` [Compound 563, 2-[1-(3-Chloro-6-furan-3-yl-8-trifluoromethyl-imidazo[1,2-a]pyridine-2-carbonyl)-1,2,3,6-tetrahydro-pyridin-4-yl]-benzonitrile], 97.4%.
In the case of `O=C(c1nc2c(C(F)(F)F)cc(-c3ccoc3)cn2c1Cl)N1CC=C(c2c(F)cccc2F)CC1` [Compound 564, (3-Chloro-6-furan-3-yl-8-trifluoromethyl-imidazo[1,2-a]pyridin-2-yl)-[4-(2,6-difluoro-phenyl)-3,6-dihydro-2H-pyridin-1-yl)-methanone] it was 99%; in that of `N#Cc1cccc(F)c1C1=CCN(C(=O)c2nc3c(C(F)(F)F)cc(-c4ccoc4)cn3c2Cl)CC1` [Compound 565, 2-[1-(3-Chloro-6-furan-3-yl-8-trifluoromethyl-imidazo[1,2-a]pyridine-2-carbonyl)-1,2,3,6-tetrahydro-pyridin-4-yl]-3-fluoro-benzonitrile], 98%.
Turning to `O=C(c1nc2c(C(F)(F)F)cc(-c3ccoc3)cn2c1Cl)N1CC=C(c2cscn2)CC1` [Compound 566], the inhibition at 10 µM came to 99.4%.
Under `C#Cc1ccccc1C1=CCN(C(=O)c2nc3c(C(F)(F)F)cc(-c4ccoc4)cn3c2Cl)CC1` [Compound 567, (3-Chloro-6-furan-3-yl-8-trifluoromethyl-imidazo[1,2-a]pyridin-2-yl)-[4-(2-ethynyl-phenyl)-3,6-dihydro-2H-pyridin-1-yl)-methanone] stands 81.3%.
In the case of `O=C(c1nc2c(C(F)(F)F)cc(-c3ccoc3)cn2c1Cl)N1CC=C(c2cncs2)CC1` [Compound 568] it was 98.8%.
